Measurements published in US20040127411A1, “Methods for treating lung cancer using insulin-like growth factor binding protein-3” (Insmed, Inc., priority 2002, published 2004).
Where two headings read alike, the source gives them in different places. Marks after values point to notes of the source that are not given here.

What was measured:
[1] = system: 3LL Lewis lung tumor; test: Treatment of 3LL murine Lewis lung tumors in C57BL6 mice; type: in vivo; details: for Mean Tumor Volume: day 23, mean ± SEM
Description: Female C57BL6 mice (8 animals per group) received bilateral SC implants of 3LL Lewis lung tumor fragments on day 0 and were treated subcutaneously with vehicle, rhIGFBP-3 (3 or 10 mg/kg twice daily×21), carboplatin (25 or 50 mg/kg; IP; single dose) or a combination of agents beginning on day 2.

[2] = system: LoVo colorectal carcinoma xenografts; test: Treatment of LoVo human colorectal carcinoma xenografts with rhIGFBP-3 and irinotecan in balb/c nu/nu mice; type: in vivo; details: for effect after discontinuation of treatment: treatment discontinued day 21, monitored to day 40
Description: Female balb/c nu/nu mice (8 animals per group) received bilateral SC implants of LoVo colorectal carcinoma fragments which were allowed to grow to volumes of 100-150 mm3 prior to initiation of treatment. Upon establishment of the tumors, mice were treated with vehicle, rhIGFBP-3 (3, 10 or 30 mg/kg twice daily; SC x 21), irinotecan (10 or 20 mg/kg; IP; 4 doses at 4 day intervals) or a combination of agents. All treatment was discontinued on day 21 and mice were monitored for tumor response out to day 40. Net tumor growth was calculated at each time point.

[3] = Pharmacokinetics of rhIGFBP-3 after single IV administration to rats; details: for AUC / Cmax: mean ± SD
Description: (§1) The purpose of this study was to characterize the pharmacokinetic profile of rhIGFBP-3 following a single IV administration to rats. Adult male Sprague-Dawley rats (N=3/group) were administered doses of 0.8-160 mg/kg rhIGFBP-3 and blood specimens were collected for drug measurement.

[4] = system: SKBR3; test: Growth inhibition (MTT assay), SKBR3; type: cell-based, human
[5] = system: BT474/HerR; test: Growth inhibition (MTT assay), BT474/HerR; type: cell-based, human
[6] = system: MCF-7 human breast xenografts; test: Early treatment of MCF-7 human breast xenografts in CD1 nu/nu mice; type: in vivo
Description: Female CD1 nu/nu mice (12 animals per group) received SC implants of 5×10^6 MCF-7 cells. On the same day, mice received either vehicle or rhIGFBP-3 IP at a dose of 20 mg/kg. Mice were then treated with either vehicle or rhIGFBP-3 (20 mg/kg twice daily) for 10 weeks. Tumor volume was monitored beginning on week 2 and measured 3 times thereafter. […] In addition, the 3 tumors that did arise in the rhIGFBP-3 group were smaller than those in the control group.

[7] = system: MCF-7/HER2-18; test: Growth inhibition (MTT assay), MCF-7/HER2-18; type: cell-based, human
[8] = system: BT474; test: Growth inhibition (MTT assay), BT474; type: cell-based, human
[9] = Pharmacokinetics of rhIGFBP-3 after single SC injection in rats; type: in vivo
Description: The purpose of this study was to characterize the pharmacokinetic profile of rhIGFBP-3 following a single SC administration to rats. Adult male rats (N=5/group) were administered doses of 3-30 mg/kg rhIGFBP-3 by bolus SC injection and blood specimens were collected for drug concentration analysis.

[10] = system: SKBR3/IGF-IR; test: Growth inhibition (MTT assay), SKBR3/IGF-IR; type: cell-based, human
[11] = rat, in vivo, iv
Description: as §1

[12] = system: MCF-7 human breast cancer cells; test: MCF-7 cell proliferation (MTT) with increasing rhIGFBP-3; type: cell-based; details: 5% FBS, 4 days, increasing concentrations
Description: FIG. 5(A) depicts the MCF-7 breast cancer cell proliferation as assayed by MTT in increasing concentrations of rhIGFBP-3.
The purpose of this study was to evaluate the effects of rhIGFBP-3 alone and in combination with radiation therapy in MCF-7 human breast cancer cells. MCF-7 cells were plated and cultured in 5% FBS for 4 days with increasing concentrations of rhIGFBP-3 in the media.

[13] = system: MCF-7 breast tumor xenografts; test: Treatment of established MCF-7 human breast tumors with rhIGFBP-3 and paclitaxel in balb/c nu/nu mice; type: in vivo
Description: Female balb/c nu/nu mice (8 animals per group) received bilateral SC implants of MCF-7 breast tumor fragments which were allowed to grow to volumes of 100-150 mm^3 prior to initiation of treatment. Upon establishment of the tumors, mice were treated with vehicle, rhIGFBP-3 (3, 10 or 30 mg/kg twice daily; SC×21), paclitaxel (10 or 20 mg/kg; IP; daily for 5 days) or a combination of agents. Tumors were measured twice weekly for 3 weeks and net tumor growth was calculated at each time point.

[14] = system: MCF-7 human breast cancer cells; details: for cell survival: 1 μg/mL, day 12
Description: In a second experiment, MCF-7 cells were exposed to increasing doses of irradiation and rhIGFBP-3 24 hours after plating. Cell survival was determined on day 12.

[15] = IV, 8.0 mg/kg vs 0.8 mg/kg (ten fold increase in dose)
[16] = 20 mg/kg twice daily, after 10 weeks, mean ± SD

N.N.O=C([O-])C1(C(=O)[O-])CCC1.[Pt+2] [Carboplatin, carboplatin, reference compound]
Mean Tumor Volume ([1]; 25 mg/kg IP single dose): 144.92 ± 31.36* mm^3 | Mean Tumor Volume ([1]; 50 mg/kg IP single dose): 187.36 ± 37.42* mm^3

CCc1c2c(nc3ccc(OC(=O)N4CCC(N5CCCCC5)CC4)cc13)-c1cc3c(c(=O)n1C2)COC(=O)[C@]3(O)CC [irinotecan, reference compound]
effect after discontinuation of treatment [2]: persisting effect

rhIGFBP-3: recombinant human insulin-like growth factor binding protein-3; preferred form from E. coli, native human sequence, lacks glycosylation
drug concentration in the serum ([3]; IV 0.8 mg/kg, four hours after administration, below quantitative limitation of the assay): < 300 ng/mL | AUC ([3]; IV, 0.8 mg/kg): 2.172 ± 0.999 µg·h/mL | Cmax ([3]; IV, 0.8 mg/kg): 3.067 ± 0.551 µg/mL | fold increase in AUC [3, 15]: 4.6 fold | fold increase in Cmax [3, 15]: 1.6 fold | AUC ([3]; IV, 8.0 mg/kg): 10.057 ± 1.248 µg·h/mL | Cmax ([3]; IV, 8.0 mg/kg): 4.967 ± 1.159 µg/mL | AUC ([3]; IV, 80 mg/kg): 215.06 ± 39.102 µg·h/mL | AUC ([3]; IV, 160 mg/kg): 287.575 ± 64.18 µg·h/mL | Cmax ([3]; IV, 160 mg/kg): 476.667 ± 122.202 µg/mL | drug serum concentrations 8 hours after dosing ([3]; IV, all dose groups other than 0.8 mg/kg): detectable | Cmax ([3]; IV): 360.333 ± 62.772 µg/mL | adverse clinical signs ([3]; single IV, any dose tested (0.8-160 mg/kg)): no adverse clinical signs | Growth Inhibition (MTT Assay) ([4]; 0.1-100 μg/ml): 20-40% | effect when combined with Herceptin, in words ([4]; combined with Herceptin): modest effect | Growth Inhibition (MTT Assay) ([5]; 0.1-100 μg/ml): 10-26% | effect when combined with Herceptin, in words ([5]; combined with Herceptin): strong dose-dependent increase in Herceptin sensitivity | growth inhibition in words, single agent ([5]; single agent): less pronounced effect | Number of Mice with Tumors ([6]; 20 mg/kg twice daily IP, after 10 weeks): 3/12 | MCF-7 tumor establishment compared to control ([6]; 20 mg/kg twice daily for 10 weeks): prevented MCF-7 tumor establishment | Mean Tumor Volume [6, 16]: 37.7 ± 42.0 mm^3 | Mean Tumor Weight [6, 16]: 0.046 ± 0.047 g | tumor volume compared to control, all mice in each group ([6]; end of treatment, p≦0.05): significantly lower | Growth Inhibition (MTT Assay) ([7]; 0.1-100 μg/ml): 15-55% | effect when combined with Herceptin, in words ([7]; combined with Herceptin, compared to rhIGFBP-3 alone): marginal dose-dependent increase in growth inhibition | growth inhibition in words, single agent ([7]; single agent): marked dose-dependent growth inhibition | net tumor growth, combination with irinotecan ([2]; 30 mg/kg rhIGFBP-3 + 10 mg/kg irinotecan): optimal results | inhibition of net tumor growth, single agent, vs 10 mg/kg irinotecan ([2]; 30 mg/kg twice daily SC x21): equally effective | effect after discontinuation of treatment [2]: persisting effect | Growth Inhibition (MTT Assay) ([8]; 0.1-100 μg/ml): 10-20% | effect when combined with Herceptin, in words ([8]; combined with Herceptin): did not significantly enhance Herceptin sensitivity | absorption following SC administration ([9]; SC): readily absorbed into the circulation | AUC ([9]; SC, 3 mg/kg): 5347 ± 909 ng·h/mL | CL/W ([9]; SC, 3 mg/kg): 578 ± 122 mL/h/kg | Cmax ([9]; SC, 3 mg/kg): 751 ± 120 ng/mL | AUC ([9]; SC, 10 mg/kg): 12999 ± 933 ng·h/mL | CL/W ([9]; SC, 10 mg/kg): 773 ± 60 mL/h/kg | Cmax ([9]; SC, 10 mg/kg): 2255 ± 217 ng/mL | increase in AUC compared to the 3 mg/kg group ([9]; SC, 10 mg/kg): approximately 2.5 fold | AUC ([9]; SC, 30 mg/kg): 54476 ± 7517 ng·h/mL | CL/W ([9]; SC, 30 mg/kg): 560 ± 85 mL/h/kg | Cmax ([9]; SC, 30 mg/kg): 6924 ± 1021 ng/mL | increase in AUC compared to the 3 mg/kg group ([9]; SC, 30 mg/kg): ~10 fold | signs of toxicity ([9]; single SC, 3-30 mg/kg): No signs of toxicity | Growth Inhibition (MTT Assay) ([10]; 0.1-100 μg/ml): 12-40% | effect when combined with Herceptin, in words ([10]; combined with Herceptin): strong dose-dependent increase in Herceptin sensitivity | growth inhibition in words, single agent ([10]; single agent): marked dose-dependent growth inhibition | CL/W ([11]; 0.8 mg/kg): 424 ± 187 mL/h/kg | CL/W ([11]; 8 mg/kg): 803 ± 97 mL/h/kg | CL/W ([11]; 80 mg/kg): 380 ± 64 mL/h/kg | CL/W ([11]; 160 mg/kg): 579 ± 145 mL/h/kg | maximum growth suppression compared to control [12]: 50% | Mean Tumor Volume ([1]; 3 mg/kg twice daily SC x21): 289.00 ± 42.97 mm^3 | reduction in tumor volume compared with carboplatin ([1]; 10 mg/kg twice daily): equal to that observed with the standard chemotherapeutic agent carboplatin | Mean Tumor Volume ([1]; 10 mg/kg twice daily SC x21): 149.73 ± 25.34* mm^3 | 3LL Lewis lung tumor growth, single agent ([1]; 3 or 10 mg/kg twice daily SC): dose-dependently inhibited | effect in combination with carboplatin ([1]; rhIGFBP-3 3 or 10 mg/kg twice daily + carboplatin 25 or 50 mg/kg IP): did not potentiate the effects of carboplatin | net tumor growth, single agent ([13]; 3, 10 or 30 mg/kg twice daily SC x21): did not inhibit net tumor growth | effect in combination with paclitaxel ([13]; maximum effect at 10 mg/kg rhIGFBP-3 and 20 mg/kg paclitaxel): enhanced the effect of paclitaxel | cell survival ([14]; 0 Gy): ~65% | cell survival ([14]; 2 Gy): 37% | cell survival ([14]; 4 Gy): 21% | cell survival ([14]; 6 Gy): 5% | effect on radiation-induced cell death ([14]; all radiation doses): accentuated this effect on cell death at all doses
